Reference: US9896445B2, “Heterocyclic inhibitors of ERK1 and ERK2 and their use in the treatment of cancer” (Asana Biosciences, LLC, priority 2015, dated 2018)

Tests used:
[1] = target: T1, ERK1 (Homo sapiens, UniProt P27361); experiment: ERK1 HTRF (biochemical) assay; conditions: HTRF
T1 construct: purchased Jubilant Biosys
Description: ERK1 and ERK2 HTRF (Biochemical) Assays
These assays employed a homogeneous time resolved fluorescence (HTRF) technique. […] The plate was incubated at room temperature for 60 min with shaking. […] The IC50 values (half maximal inhibitory concentration values) were subsequently determined using a sigmoidal dose-response curve (variable slope) in GraphPad Prism® 5 software.

[2] = target: T2, ERK2 (Homo sapiens, UniProt P28482); experiment: ERK2 HTRF (biochemical) assay; conditions: HTRF
T2 construct: purchased Jubilant Biosys
T2 sequence (P28482 whole entry): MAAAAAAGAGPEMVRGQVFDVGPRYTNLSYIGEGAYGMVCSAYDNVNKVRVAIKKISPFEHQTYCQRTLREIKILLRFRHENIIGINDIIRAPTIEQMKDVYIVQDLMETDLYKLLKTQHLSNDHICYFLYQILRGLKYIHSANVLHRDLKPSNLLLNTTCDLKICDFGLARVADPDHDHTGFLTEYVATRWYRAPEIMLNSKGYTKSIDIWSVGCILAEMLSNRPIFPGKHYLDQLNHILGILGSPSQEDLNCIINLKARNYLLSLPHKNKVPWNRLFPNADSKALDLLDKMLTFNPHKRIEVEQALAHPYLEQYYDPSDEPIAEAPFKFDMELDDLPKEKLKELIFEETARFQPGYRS
Summary of the method: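 Compounds were tested as half-log dilutions from 0.0005 to 10 uM in Tris pH 7.5/MgCl2 buffer, with a substrate mix of 1 uM biotin-MBP peptide and 24 uM ATP and an enzyme mix of 25 nM ERK2. Reaction ran 60 min at room temperature. Phospho-MBP was detected by HTRF (Eu-anti-phospho-MBP/SA-APC, 665/620 nm), and IC50 was fitted with a variable-slope sigmoidal curve.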

T1 sequence (P27361 whole entry): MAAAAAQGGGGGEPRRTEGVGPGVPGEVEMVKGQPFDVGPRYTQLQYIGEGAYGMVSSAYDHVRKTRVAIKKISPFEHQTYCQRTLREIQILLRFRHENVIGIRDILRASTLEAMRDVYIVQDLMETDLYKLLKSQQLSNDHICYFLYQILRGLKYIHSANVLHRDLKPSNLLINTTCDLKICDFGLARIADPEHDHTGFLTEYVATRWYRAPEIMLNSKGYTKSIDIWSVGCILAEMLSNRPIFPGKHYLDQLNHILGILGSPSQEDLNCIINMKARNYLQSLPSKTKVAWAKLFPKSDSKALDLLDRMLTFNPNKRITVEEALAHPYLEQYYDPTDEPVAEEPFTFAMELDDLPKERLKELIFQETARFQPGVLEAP

Row | SMILES | IC50 [1] [nM] | IC50 [2] [nM]
1 | Cc1cnc(Nc2ccc(F)cc2)nc1-n1cnc(C(=O)NC(CO)c2ccccc2)c1 (centres unmarked) [Compound 118, 1-(2-((4-fluoro-phenyl)amino)-5-methylpyrimidin-4-yl)-N-(2-hydroxy-1-phenylethyl)-1H-imidazole-4-carboxamide] | 50 to 100 | ≤ 50
2 | COc1cc(Nc2ncc(C)c(-n3ccc(C(=O)NC(CO)c4ccccc4)c3)n2)cc(OC)c1OC (centres unmarked) [Compound 121, N-(2-hydroxy-1-phenylethyl)-1-(5-methyl-2-((3,4,5-trimethoxyphenyl)amino)pyrimidin-4-yl)-1H-pyrrole-3-carboxamide] | < 50 | ≤ 50
3 | Cc1cnc(NC2CCOC2)nc1-n1ccc(C(=O)NC(CO)c2cccc(Cl)c2)c1 (centres unmarked) [Compound 123, N-(1-(3-chlorophenyl)-2-hydroxyethyl)-1-(5-methyl-2-((tetrahydrofuran-3-yl)amino)pyrimidin-4-yl)-1H-pyrrole-3-carboxamide] | < 50 | ≤ 50
4 | O=C(NC(CO)c1cccc(Cl)c1)c1ccn(-c2cc(Nc3ccccc3)ncc2Cl)c1 (centres unmarked) [Compound 124, 1-(5-chloro-2-(phenylamino)pyridin-4-yl)-N-(1-(3-chlorophenyl)-2-hydroxyethyl)-1H-pyrrole-3-carboxamide] | < 50 | ≤ 50
5 | Cc1cnc(Nc2ccc(F)cc2)nc1-n1ccc(C(=O)N[C@H](CO)c2ccc(F)c(Cl)c2)c1 [Compound 125, (S)-N-(1-(3-chloro-4-fluorophenyl)-2-hydroxyethyl)-1-(2-((4-fluorophenyl)-amino)-5-methyl-pyrimidin-4-yl)-1H-pyrrole-3-carboxamide] | < 50 | ≤ 50
6 | COc1cc(Nc2ncc(C)c(-n3ccc(C(=O)N[C@H](CO)c4ccc(F)c(Cl)c4)c3)n2)cc(OC)c1OC [Compound 126, (S)-N-(1-(3-chloro-4-fluorophenyl)-2-hydroxyethyl)-1-(5-methyl-2-((3,4,5-trimethoxyphenyl)amino)pyrimidin-4-yl)-1H-pyrrole-3-carboxamide] | < 50 | ≤ 50
7 | CCC(COC)Nc1ncc(C)c(-n2ccc(C(=O)NC(CO)c3cccc(Cl)c3)c2)n1 (centres unmarked) [Compound 127, N-(1-(3-chloro-phenyl)-2-hydroxy-ethyl)-1-(2-((1-methoxybutan-2-yl)amino)-5-methylpyrimidin-4-yl)-1H-pyrrole-3-carboxamide] | < 50 | ≤ 50
8 | Cc1cnc(NC2CCOC2)nc1-n1ccc(C(=O)NC(CO)c2ccccc2)c1 (centres unmarked) [Compound 128, N-(2-hydroxy-1-phenylethyl)-1-(5-methyl-2-((tetrahydrofuran-3-yl)amino)pyrimidin-4-yl)-1H-pyrrole-3-carboxamide] | < 50 | ≤ 50
9 | COc1cnc(Nc2ccc(F)cc2Cl)nc1-n1ccc(C(=O)NC(CO)c2ccccc2)c1 (centres unmarked) [Compound 129, 1-(2-((2-chloro-4-fluorophenyl)amino)-5-methoxy-pyrimidin-4-yl)-N-(2-hydroxy-1-phenylethyl)-1H-pyrrole-3-carboxamide] | < 50 | ≤ 50
10 | CCNc1ncc(C)c(-n2ccc(C(=O)NC(CO)c3ccccc3)c2)n1 (centres unmarked) [Compound 130, 1-(2-(ethylamino)-5-methylpyrimidin-4-yl)-N-(2-hydroxy-1-phenylethyl)-1H-pyrrole-3-carboxamide] | 100 to 500 | 100 to 500
11 | Cc1cnc(Nc2ccc3c(c2)OCCO3)nc1-n1ccc(C(=O)NC(CO)c2ccccc2)c1 (centres unmarked) [Compound 131, 1-(2-((2,3-dihydrobenzo[b] [1,4]dioxin-6-yl)-amino)-5-methyl-pyrimidin-4-yl)-N-(2-hydroxy-1-phenylethyl)-1H-pyrrole-3-carboxamide] | < 50 | ≤ 50
12 | Cc1cnc(Nc2ccc3occc3c2)nc1-n1cnc(C(=O)NC(CO)c2cccc(Cl)c2)c1 (centres unmarked) [Compound 132, 1-(2-(benzofuran-5-ylamino)-5-methylpyrimidin-4-yl)-N-(1-(3-chlorophenyl)-2-hydroxyethyl)-1H-imidazole-4-carboxamide] | < 50 | ≤ 50
13 | CC[C@@H](CO)Nc1ncc(C)c(-n2ccc(C(=O)N[C@H](CO)c3ccc(F)c(Cl)c3)c2)n1 [Compound 133, N-((S)-1-(3-chloro-4-fluorophenyl)-2-hydroxyethyl)-1-(2-(((S)-1-hydroxy-butan-2-yl)amino)-5-methylpyrimidin-4-yl)-1H-pyrrole-3-carboxamide] | < 50 | ≤ 50
14 | CC(=O)NCC(NC(=O)c1ccn(-c2cc(Nc3ccc(F)cc3)ncc2C)c1)c1ccccc1 (centres unmarked) [Compound 135, N-(2-acetamido-1-phenylethyl)-1-(2-((4-fluorophenyl)-amino)-5-methyl-pyridin-4-yl)-1H-pyrrole-3-carboxamide] | < 50 | ≤ 50
15 | Cc1cnc(Nc2ccc3c(c2)OC(F)(F)O3)nc1-n1ccc(C(=O)NC(CN)c2cccc(Cl)c2)c1 (centres unmarked) [Compound 136, N-(2-amino-1-(3-chlorophenyl)ethyl)-1-(2-((2,2-difluorobenzo[d][1,3]dioxol-5-yl)amino)-5-methylpyrimidin-4-yl)-1H-pyrrole-3-carboxamide] | 50 to 100 | ≤ 50
16 | Cc1cnc(Nc2ccc3c(c2)CCO3)nc1-n1ccc(C(=O)NC(CO)c2cccc(Cl)c2)c1 (centres unmarked) [Compound 137, N-(1-(3-chloro-phenyl)-2-hydroxyethyl)-1-(2-((2,3-dihydro-benzofuran-5-yl)-mino)-5-methyl-pyrimidin-4-yl)-1H-pyrrole-3-carboxamide] | < 50 | ≤ 50
17 | Cc1cnc(Nc2ccc3c(c2)CCO3)nc1-n1ccc(C(=O)NC(CO)c2ccccc2)c1 (centres unmarked) [Compound 138, 1-(2-((2,3-dihydro-benzofuran-5-yl)amino)-5-methylpyrimidin-4-yl)-N-(2-hydroxy-1-phenylethyl)-1H-pyrrole-3-carboxamide] | < 50 | ≤ 50

Now from value to molecule:

Row | IC50 [1] [nM] | IC50 [2] [nM] | SMILES
18 | < 50 | ≤ 50 | Cc1cnc(Nc2ccc3c(c2)OCCO3)nc1-n1ccc(C(=O)NC(CO)c2cccc(Cl)c2)c1 (centres unmarked) [Compound 139, N-(1-(3-chloro-phenyl)-2-hydroxyethyl)-1-(2-((2,3-dihydro-benzo[b][1,4]dioxin-6-yl)amino)-5-methylpyrimidin-4-yl)-1H-pyrrole-3-carboxamide]
19 | < 50 | ≤ 50 | Cc1cnc(Nc2ccc3[nH]ncc3c2)nc1-n1ccc(C(=O)NC(CO)c2ccccc2)c1 (centres unmarked) [Compound 140, 1-(2-((1H-indazol-5-yl)amino)-5-methylpyrimidin-4-yl)-N-(2-hydroxy-1-phenylethyl)-1H-pyrrole-3-carboxamide]
20 | < 50 | ≤ 50 | Cc1cnc(NC2CCCOC2)nc1-n1ccc(C(=O)NC(CO)c2ccccc2)c1 (centres unmarked) [Compound 141, N-(2-hydroxy-1-phenylethyl)-1-(5-methyl-2-((tetrahydro-2H-pyran-3-yl)amino)-pyrimidin-4-yl)-1H-pyrrole-3-carboxamide]
21 | < 50 | ≤ 50 | COc1cc(F)ccc1Nc1ncc(C)c(-n2ccc(C(=O)NC(CO)c3cccc(Cl)c3)c2)n1 (centres unmarked) [Compound 142, N-(1-(3-chloro-phenyl)-2-hydroxy-ethyl)-1-(2-((4-fluoro-2-methoxy-phenyl)amino)-5-methylpyrimidin-4-yl)-1H-pyrrole-3-carboxamide]
22 | < 50 | ≤ 50 | COc1c(F)cccc1Nc1ncc(C)c(-n2ccc(C(=O)NC(CO)c3cccc(Cl)c3)c2)n1 (centres unmarked) [Compound 143]
23 | > 2500 | 500 to 2500 | O=C(NC(CO)c1cccc(Cl)c1)c1ccn(-c2ccnc(NC3CCNC3)c2)c1 (centres unmarked) [Compound 145, N-(1-(3-chloro-phenyl)-2-hydroxy-ethyl)-1-(2-(pyrrolidin-3-ylamino)pyridin-4-yl)-1H-pyrrole-3-carboxamide]
24 | < 50 | ≤ 50 | CC[C@@H](CO)Nc1ncc(C)c(-n2ccc(C(=O)NC(CO)c3cccc(Cl)c3)c2)n1 (stereo partly drawn) [Compound 146, N-(1-(3-chloro-phenyl)-2-hydroxy-ethyl)-1-(2-(((S)-1-hydroxybutan-2-yl)amino)-5-methylpyrimidin-4-yl)-1H-pyrrole-3-carboxamide]
25 | 50 to 100 | ≤ 50 | Cc1cnc(NC(CO)CO)nc1-n1ccc(C(=O)NC(CO)c2ccccc2)c1 (centres unmarked) [Compound 147, 1-(2-((1,3-dihydroxypropan-2-yl)amino)-5-methylpyrimidin-4-yl)-N-(2-hydroxy-1-phenylethyl)-1H-pyrrole-3-carboxamide]
26 | < 50 | ≤ 50 | COc1ccc(Nc2ncc(C)c(-n3ccc(C(=O)NC(CO)c4ccccc4)c3)n2)cc1OCCN1CCN(C)CC1 (centres unmarked) [Compound 148, N-(2-hydroxy-1-phenylethyl)-1-(2-((4-methoxy-3-(2-(4-methylpiperazin-1-yl)ethoxy)-phenyl)amino)-5-methylpyrimidin-4-yl)-1H-pyrrole-3-carboxamide]
27 | 100 to 500 | ≤ 50 | Cc1cnc(Nc2ccc(F)cc2Cl)nc1-n1ccc(C(=O)NC(COC(=O)C(N)CC(C)C)c2ccccc2)c1 (centres unmarked) [Compound 150, 2-(1-(2-((2-chloro-4-fluorophenyl)-amino)-5-methyl-pyrimidin-4-yl)-1H-pyrrole-3-carboxamido)-2-phenylethyl 2-amino-4-methyl-pentanoate]
28 | < 50 | ≤ 50 | Cc1cnc(NC2CCOC2)nc1-n1ccc(C(=O)N[C@H](CO)c2cccc(Cl)c2)c1 (stereo partly drawn) [Compound 151, N-((S)-1-(3-chlorophenyl)-2-hydroxyethyl)-1-(5-methyl-2-((tetrahydrofuran-3-yl)amino)pyrimidin-4-yl)-1H-pyrrole-3-carboxamide]
